Source: ChEMBL document CHEMBL1157426, “Diazen-1-ium-1,2-diolated nitric oxide donor ester prodrugs of 1-(4-methanesulfonylphenyl)-5-aryl-1H-pyrazol-3-carboxylic acids: synthesis, nitric oxide release studies and anti-inflammatory activities” (Bioorg Med Chem, 2008)

Tests used:
[1] = Induction of nitric oxide release at pH 7.4 PBS after 1.5 hrs; assay type: physicochemical; conditions: buffer, pH 7.4, 1.5 h
Serum = assay: Induction of nitric oxide release in rat serum at pH 7.4 after 1.5 hrs; assay type: cell-free; conditions: pH 7.4, 1.5 h
[2] = molecular target: Prostaglandin G/H synthase 1 (Homo sapiens) (UniProt P23219); conditions: at 100 µM
Sequence of Prostaglandin G/H synthase 1 (Homo sapiens) (P23219 whole entry): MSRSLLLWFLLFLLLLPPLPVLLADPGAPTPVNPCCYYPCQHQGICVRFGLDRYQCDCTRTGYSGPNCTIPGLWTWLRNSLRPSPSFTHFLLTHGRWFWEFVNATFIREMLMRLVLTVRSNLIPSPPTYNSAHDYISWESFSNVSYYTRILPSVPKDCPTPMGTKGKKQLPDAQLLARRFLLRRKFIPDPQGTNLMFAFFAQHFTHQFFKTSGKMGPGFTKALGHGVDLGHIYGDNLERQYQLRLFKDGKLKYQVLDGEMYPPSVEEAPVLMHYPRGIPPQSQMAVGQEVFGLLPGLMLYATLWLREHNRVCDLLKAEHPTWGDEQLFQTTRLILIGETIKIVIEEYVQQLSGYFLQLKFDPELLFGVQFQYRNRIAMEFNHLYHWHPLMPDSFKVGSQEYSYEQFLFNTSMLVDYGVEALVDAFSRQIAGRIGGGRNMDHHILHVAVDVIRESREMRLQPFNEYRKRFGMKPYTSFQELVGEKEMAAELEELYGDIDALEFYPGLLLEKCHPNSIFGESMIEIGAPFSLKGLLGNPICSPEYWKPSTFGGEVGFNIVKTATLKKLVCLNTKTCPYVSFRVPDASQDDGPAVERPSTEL
Description: Inhibition of COX1 at 100 uM

[3] = molecular target: T1, Prostaglandin G/H synthase 2 (Homo sapiens) (UniProt P35354); conditions: at 100 µM
T1 sequence (whole entry): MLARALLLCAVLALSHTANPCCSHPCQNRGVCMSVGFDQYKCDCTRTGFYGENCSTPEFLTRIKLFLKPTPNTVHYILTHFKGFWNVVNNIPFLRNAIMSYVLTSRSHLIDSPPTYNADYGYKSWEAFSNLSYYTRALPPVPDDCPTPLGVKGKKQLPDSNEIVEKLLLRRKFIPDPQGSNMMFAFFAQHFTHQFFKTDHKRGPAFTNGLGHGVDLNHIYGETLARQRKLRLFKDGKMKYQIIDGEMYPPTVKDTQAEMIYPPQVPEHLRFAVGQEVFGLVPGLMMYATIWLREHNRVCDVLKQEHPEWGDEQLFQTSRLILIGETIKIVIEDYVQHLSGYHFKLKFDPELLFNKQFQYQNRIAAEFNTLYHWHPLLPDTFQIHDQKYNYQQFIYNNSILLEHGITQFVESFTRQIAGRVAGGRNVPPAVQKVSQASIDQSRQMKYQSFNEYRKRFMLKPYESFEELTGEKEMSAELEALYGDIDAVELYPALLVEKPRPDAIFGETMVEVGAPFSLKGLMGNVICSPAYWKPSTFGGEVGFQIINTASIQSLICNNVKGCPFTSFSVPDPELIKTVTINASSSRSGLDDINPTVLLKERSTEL
Description: Inhibition of COX2 at 100 uM

Rattus norvegicus = assay: Antiinflammatory activity in po dosed rat assessed as inhibition of carrageenan-induced paw edema after 3 hrs; assay type: functional; conditions: read-out: ID50 (the source's name)

Row | Structure (SMILES) | Activity [1] [%] | Activity (Serum) [%] | ED50 (Rattus norvegicus) [mg/kg] | also measured
1 | CCOC(=O)c1cc(-c2ccc(C)cc2)n(-c2ccc(S(N)(=O)=O)cc2)n1 | – | – | – | inhibition [2]: 66%; inhibition [3]: 43%
2 | Cc1ccc(-c2cc(C(=O)O)nn2-c2ccc(S(C)(=O)=O)cc2)cc1 | – | – | 85.2 | –
3 | CS(=O)(=O)c1ccc(-n2nc(C(=O)O)cc2-c2ccccc2)cc1 | – | – | 104 | –
4 | CS(=O)(=O)c1ccc(-n2nc(C(=O)O)cc2-c2ccc(F)cc2)cc1 | – | – | 104 | –

The next lines start with results.

Row | Activity [1] [%] | Activity (Serum) [%] | Structure (SMILES) | ED50 (Rattus norvegicus) [mg/kg] | also measured
5 | 84.5 | 85 | CN(CCO)/[N+]([O-])=N/[O-].[Na+] | – | –
6 | 9.3 | 73.6 | CC(=O)OCO/N=[N+](\[O-])N(C)CCOC(=O)c1cc(-c2ccc(F)cc2)n(-c2ccc(S(C)(=O)=O)cc2)n1 | – | –
7 | 9.2 | 70.9 | CC(=O)OCO/N=[N+](\[O-])N(C)CCOC(=O)c1cc(-c2ccc(C)cc2)n(-c2ccc(S(C)(=O)=O)cc2)n1 | – | –
8 | 7.7 | 67.5 | CC(=O)OCO/N=[N+](\[O-])N(C)CCOC(=O)c1cc(-c2ccccc2)n(-c2ccc(S(C)(=O)=O)cc2)n1 | – | –
